# From ChEMBL document CHEMBL1156502, “Stabilized immune modulatory RNA compounds as agonists of Toll-like receptors 7 and 8” (Proc Natl Acad Sci U S A, 2007)
# Calls of active or inactive are those of the source. The calls are words filed in the database; no cut-off is given here.
# What was measured:
# PBMC [1] = assay: Induction of IL12 secretion in human PBMC after 24 hrs by Luminex Multiplex assay; format: functional, cell-based
# PBMC [2] = assay: Induction of IFNalpha secretion in human PBMC after 24 hrs by Luminex Multiplex assay; format: functional, cell-based
# PBMC [3] = assay: Induction of IFN-gamma secretion in human PBMC after 24 hrs by Luminex Multiplex assay; format: functional, cell-based
# Cynomolgus monkey [4] = assay: Induction of immune response in cynomolgus monkey assessed as increase in number of peripheral blood neutrophils at 5 mg/kg, sc within 24 hrs; format: functional, organism-based; set-up: dose 5 mg/kg; conditions: Macaca fascicularis
# Cynomolgus monkey [5] = assay: Induction of immune response in cynomolgus monkey assessed as increase in number of peripheral blood monocytes at 5 mg/kg, sc within 24 hrs; format: functional, organism-based; set-up: dose 5 mg/kg; conditions: Macaca fascicularis
# Cynomolgus monkey [6] = assay: Increase in CD69 expression on CD3+ lymphocytes in cynomolgus monkey at 5 mg/kg, sc after 24 hrs by flow cytometry relative to control; format: functional, organism-based; set-up: dose 5 mg/kg; conditions: Macaca fascicularis
# Cynomolgus monkey [7] = assay: Increase in CD69 expression on CD16+ NK cells in cynomolgus monkey at 5 mg/kg, sc after 24 hrs by flow cytometry relative to control; format: functional, organism-based; set-up: dose 5 mg/kg; conditions: Macaca fascicularis
# Cynomolgus monkey [8] = assay: Increase in CD69 expression on CD14+ monocytes in cynomolgus monkey at 5 mg/kg, sc after 24 hrs by flow cytometry relative to control; format: functional, organism-based; set-up: dose 5 mg/kg; conditions: Macaca fascicularis
# Cynomolgus monkey [9] = assay: Elevation of IFNalpha in cynomolgus monkey plasma at 5 mg/kg, sc after 24 hrs; format: functional, organism-based; set-up: dose 5 mg/kg; conditions: Macaca fascicularis
# Cynomolgus monkey [10] = assay: Elevation of IP10 in cynomolgus monkey plasma at 5 mg/kg, sc after 24 hrs; format: functional, organism-based; set-up: dose 5 mg/kg; conditions: Macaca fascicularis
# [11] = Stability in 1% human serum assessed as full length product after 10 mins; format: ADME, cell-free; conditions: read-out: Stability
# [12] = target: T1, Toll-like receptor 8 (Homo sapiens) (UniProt Q9NR97); assay: Activation of human TLR8 expressed in HEK293 cells assessed as increase in NF-kappaB activation at 100 ug/ml by SEAP assay; format: cell-based
# T1 sequence (whole entry): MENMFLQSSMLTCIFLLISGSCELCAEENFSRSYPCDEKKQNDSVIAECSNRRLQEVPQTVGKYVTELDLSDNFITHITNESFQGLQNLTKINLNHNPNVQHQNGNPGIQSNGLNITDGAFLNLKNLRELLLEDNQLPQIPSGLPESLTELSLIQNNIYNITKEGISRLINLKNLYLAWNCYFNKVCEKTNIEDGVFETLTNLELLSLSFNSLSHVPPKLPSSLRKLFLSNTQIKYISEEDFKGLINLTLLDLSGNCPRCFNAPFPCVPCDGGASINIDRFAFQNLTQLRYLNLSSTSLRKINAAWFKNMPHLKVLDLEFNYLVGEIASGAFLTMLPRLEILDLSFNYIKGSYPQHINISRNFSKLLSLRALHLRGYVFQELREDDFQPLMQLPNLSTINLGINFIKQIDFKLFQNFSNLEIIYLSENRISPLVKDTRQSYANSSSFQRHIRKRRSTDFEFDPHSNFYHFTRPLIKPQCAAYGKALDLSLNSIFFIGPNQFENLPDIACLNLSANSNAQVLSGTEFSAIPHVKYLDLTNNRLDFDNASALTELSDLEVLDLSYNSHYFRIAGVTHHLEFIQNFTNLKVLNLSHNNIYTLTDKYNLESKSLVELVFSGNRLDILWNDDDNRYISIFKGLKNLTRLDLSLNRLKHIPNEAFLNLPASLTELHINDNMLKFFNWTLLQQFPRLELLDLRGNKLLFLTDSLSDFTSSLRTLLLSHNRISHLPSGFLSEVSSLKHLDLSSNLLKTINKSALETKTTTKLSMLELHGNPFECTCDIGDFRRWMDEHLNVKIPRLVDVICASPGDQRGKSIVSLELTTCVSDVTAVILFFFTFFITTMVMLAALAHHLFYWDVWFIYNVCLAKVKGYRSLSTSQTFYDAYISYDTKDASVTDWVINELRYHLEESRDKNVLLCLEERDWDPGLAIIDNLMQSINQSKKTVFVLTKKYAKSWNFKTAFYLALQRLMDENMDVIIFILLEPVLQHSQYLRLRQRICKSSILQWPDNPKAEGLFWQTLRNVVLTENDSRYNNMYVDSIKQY
# [13] = target: T2, Toll-like receptor 7 (Homo sapiens) (UniProt Q9NYK1); assay: Activation of human TLR7 expressed in HEK293 cells assessed as increase in NF-kappaB activation at 100 ug/ml by SEAP assay; format: cell-based
# T2 sequence (whole entry): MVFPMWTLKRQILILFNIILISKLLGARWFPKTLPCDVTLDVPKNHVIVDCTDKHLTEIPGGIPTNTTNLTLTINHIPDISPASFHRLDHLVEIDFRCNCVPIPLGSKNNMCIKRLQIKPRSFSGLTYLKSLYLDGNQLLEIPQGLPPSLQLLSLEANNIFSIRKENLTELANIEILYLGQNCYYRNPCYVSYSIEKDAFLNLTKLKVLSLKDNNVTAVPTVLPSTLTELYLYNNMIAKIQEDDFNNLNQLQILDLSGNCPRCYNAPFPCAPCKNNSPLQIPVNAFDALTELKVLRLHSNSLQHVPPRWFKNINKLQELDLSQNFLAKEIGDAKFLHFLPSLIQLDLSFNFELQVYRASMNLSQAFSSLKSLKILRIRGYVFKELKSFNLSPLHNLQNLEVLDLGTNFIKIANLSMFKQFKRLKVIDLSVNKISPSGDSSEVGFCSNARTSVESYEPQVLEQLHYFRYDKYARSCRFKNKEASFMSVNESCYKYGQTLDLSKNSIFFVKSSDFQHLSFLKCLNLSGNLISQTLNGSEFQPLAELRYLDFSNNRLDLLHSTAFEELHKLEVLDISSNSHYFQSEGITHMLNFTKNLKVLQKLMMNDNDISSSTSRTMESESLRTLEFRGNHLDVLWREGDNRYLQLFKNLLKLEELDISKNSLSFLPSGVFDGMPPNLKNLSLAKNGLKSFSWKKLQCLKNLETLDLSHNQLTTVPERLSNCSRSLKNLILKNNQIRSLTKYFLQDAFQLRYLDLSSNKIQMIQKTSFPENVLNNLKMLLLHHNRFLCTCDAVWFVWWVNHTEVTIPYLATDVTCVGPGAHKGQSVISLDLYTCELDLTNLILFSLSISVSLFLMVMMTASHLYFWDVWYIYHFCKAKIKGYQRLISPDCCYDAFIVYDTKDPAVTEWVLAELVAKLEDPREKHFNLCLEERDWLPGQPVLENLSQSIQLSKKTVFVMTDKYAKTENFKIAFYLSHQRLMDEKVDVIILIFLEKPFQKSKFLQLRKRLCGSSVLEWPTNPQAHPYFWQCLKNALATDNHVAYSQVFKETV
# PBMC [14] = assay: Induction of IL1-beta secretion in human PBMC after 24 hrs by Luminex Multiplex assay; format: functional, cell-based
# PBMC [15] = assay: Induction of IL2R secretion in human PBMC after 24 hrs by Luminex Multiplex assay; format: functional, cell-based
# PBMC [16] = assay: Induction of IL10 secretion in human PBMC after 24 hrs by Luminex Multiplex assay; format: functional, cell-based
# Mus musculus [17] = assay: Induction of IL12 secretion in sc dosed C57BL/6 mouse serum after 2 hrs by ELISA; format: functional, organism-based
# Mus musculus [18] = assay: Induction of cytokine secretion in C57BL/6 mouse plasma at 100 mg/kg, sc by Luminex Multiplex assay; format: functional, organism-based; set-up: dose 100 mg/kg
# Mus musculus [19] = assay: Induction of chemokine secretion in C57BL/6 mouse plasma at 100 mg/kg, sc by Luminex Multiplex assay; format: functional, organism-based; set-up: dose 100 mg/kg
SMILES,Activity (PBMC [1]),Activity (PBMC [2]),Activity (PBMC [3]),Activity (Cynomolgus monkey [4]),Activity (Cynomolgus monkey [5]),Activity (Cynomolgus monkey [6]),Activity (Cynomolgus monkey [7]),Activity (Cynomolgus monkey [8]),Activity (Cynomolgus monkey [9]),Activity (Cynomolgus monkey [10]),remaining at 10 min [11],Activity [12],Activity [13],Activity (PBMC [14]),Activity (PBMC [15]),Activity (PBMC [16]),Activity (Mus musculus [17]),Activity (Mus musculus [18]),Activity (Mus musculus [19])
Nc1ccn([C@@H]2O[C@H](COP(O)(=S)O[C@H]3[C@@H](O)[C@H](n4cnc5c(=O)[nH]c(N)nc54)O[C@@H]3COP(O)(=S)O[C@H]3[C@@H](O)[C@H](n4ccc(=O)[nH]c4=O)O[C@@H]3COCCCO)[C@@H](OP(O)(=S)OC[C@H]3O[C@@H](n4ccc(=O)[nH]c4=O)[C@H](O)[C@@H]3OP(O)(=S)OC[C@H]3O[C@@H](n4cnc5c(=O)[nH]c(N)nc54)[C@H](O)[C@@H]3OP(O)(=S)OC[C@H]3O[C@@H](n4ccc(N)nc4=O)[C@H](O)[C@@H]3OP(O)(=S)OC[C@H]3O[C@@H](n4ccc(=O)[nH]c4=O)[C@H](O)[C@@H]3OP(O)(=S)OC[C@H]3O[C@@H](n4ccc(=O)[nH]c4=O)[C@H](O)[C@@H]3OP(O)(=S)OC[C@H]3O[C@@H](n4cnc5c(=O)[nH]c(N)nc54)[C@H](O)[C@@H]3OP(O)(=S)OC[C@H]3O[C@@H](n4ccc(=O)[nH]c4=O)[C@H](O)[C@@H]3OP(O)(=S)OC[C@H]3O[C@@H](n4cnc5c(=O)[nH]c(N)nc54)[C@H](O)[C@@H]3OP(O)(=S)OCC(O)COP(O)(=S)O[C@H]3[C@@H](O)[C@H](n4cnc5c(=O)[nH]c(N)nc54)O[C@@H]3COP(O)(=S)O[C@H]3[C@@H](O)[C@H](n4ccc(=O)[nH]c4=O)O[C@@H]3COP(O)(=S)O[C@H]3[C@@H](O)[C@H](n4cnc5c(=O)[nH]c(N)nc54)O[C@@H]3COP(O)(=S)O[C@H]3[C@@H](O)[C@H](n4ccc(=O)[nH]c4=O)O[C@@H]3COP(O)(=S)O[C@H]3[C@@H](O)[C@H](n4ccc(=O)[nH]c4=O)O[C@@H]3COP(O)(=S)O[C@H]3[C@@H](O)[C@H](n4ccc(N)nc4=O)O[C@@H]3COP(O)(=S)O[C@H]3[C@@H](O)[C@H](n4cnc5c(=O)[nH]c(N)nc54)O[C@@H]3COP(O)(=S)O[C@H]3[C@@H](O)[C@H](n4ccc(=O)[nH]c4=O)O[C@@H]3COP(O)(=S)O[C@H]3[C@@H](O)[C@H](n4ccc(N)nc4=O)O[C@@H]3COP(O)(=S)O[C@H]3[C@@H](O)[C@H](n4cnc5c(=O)[nH]c(N)nc54)O[C@@H]3COP(O)(=S)O[C@H]3[C@@H](O)[C@H](n4ccc(=O)[nH]c4=O)O[C@@H]3COCCCO)[C@H]2O)c(=O)n1 (stereo partly drawn),Dose-dependent effect,Dose-dependent effect,Dose-dependent effect,Active,Active,Active,Active,Active,Active,Active,78%,Active,inactive,Dose-dependent effect,Dose-dependent effect,Dose-dependent effect,,,
Nc1ccn([C@@H]2O[C@H](COP(O)(=S)O[C@H]3[C@@H](O)[C@H](n4cnc5c(=O)[nH]c(N)nc54)O[C@@H]3COP(O)(=S)O[C@H]3[C@@H](O)[C@H](n4ccc(=O)[nH]c4=O)O[C@@H]3CO)[C@@H](OP(O)(=S)OC[C@H]3O[C@@H](n4ccc(=O)[nH]c4=O)[C@H](O)[C@@H]3OP(O)(=S)OC[C@H]3O[C@@H](n4cnc5c(=O)[nH]c(N)nc54)[C@H](O)[C@@H]3OP(O)(=S)OC[C@H]3O[C@@H](n4ccc(N)nc4=O)[C@H](O)[C@@H]3OP(O)(=S)OC[C@H]3O[C@@H](n4ccc(=O)[nH]c4=O)[C@H](O)[C@@H]3OP(O)(=S)OC[C@H]3O[C@@H](n4ccc(=O)[nH]c4=O)[C@H](O)[C@@H]3OP(O)(=S)OC[C@H]3O[C@@H](n4cnc5c(=O)[nH]c(N)nc54)[C@H](O)[C@@H]3OP(O)(=S)OC[C@H]3O[C@@H](n4ccc(=O)[nH]c4=O)[C@H](O)[C@@H]3OP(O)(=S)OC[C@H]3O[C@@H](n4cnc5c(=O)[nH]c(N)nc54)[C@H](O)[C@@H]3OP(O)(=S)OCC(O)COP(O)(=S)O[C@H]3[C@@H](O)[C@H](n4cnc5c(=O)[nH]c(N)nc54)O[C@@H]3COP(O)(=S)O[C@H]3[C@@H](O)[C@H](n4ccc(=O)[nH]c4=O)O[C@@H]3COP(O)(=S)O[C@H]3[C@@H](O)[C@H](n4cnc5c(=O)[nH]c(N)nc54)O[C@@H]3COP(O)(=S)O[C@H]3[C@@H](O)[C@H](n4ccc(=O)[nH]c4=O)O[C@@H]3COP(O)(=S)O[C@H]3[C@@H](O)[C@H](n4ccc(=O)[nH]c4=O)O[C@@H]3COP(O)(=S)O[C@H]3[C@@H](O)[C@H](n4ccc(N)nc4=O)O[C@@H]3COP(O)(=S)O[C@H]3[C@@H](O)[C@H](n4cnc5c(=O)[nH]c(N)nc54)O[C@@H]3COP(O)(=S)O[C@H]3[C@@H](O)[C@H](n4ccc(=O)[nH]c4=O)O[C@@H]3COP(O)(=S)O[C@H]3[C@@H](O)[C@H](n4ccc(N)nc4=O)O[C@@H]3COP(O)(=S)O[C@H]3[C@@H](O)[C@H](n4cnc5c(=O)[nH]c(N)nc54)O[C@@H]3COP(O)(=S)O[C@H]3[C@@H](O)[C@H](n4ccc(=O)[nH]c4=O)O[C@@H]3CO)[C@H]2O)c(=O)n1 (stereo partly drawn),Dose-dependent effect,Dose-dependent effect,Dose-dependent effect,,,,,,,,74%,Active,inactive,Dose-dependent effect,Dose-dependent effect,Dose-dependent effect,inactive,inactive,inactive
